Here are results for 19 compounds from patent publication US20240109863A1, “2-PYRIDONE DERIVATIVE, AND PREPARATION METHOD THEREFOR AND PHARMACEUTICAL APPLICATION THEREOF” (KPC PHARMACEUTICALS, INC, priority 2020, published 2024).

One assay has as its target T1, THRβ (Homo sapiens, UniProt P10828).
T1 construct: RXRα and THRβ-LBD Eu-anti-GST antibody with GST tag
Nature of the assay: THRβ binding assay (time-resolved FRET coactivator peptide recruitment). Format: biochemical. The note with it: THRβ-LBD/RXRα, SRC2-2 coactivator peptide recruitment, 4 hours at room temperature. The procedure: Experimental methods: In vitro analysis of the agonistic effect of compounds on THRβ was performed using time-resolved fluorescence resonance energy transfer coactivator peptide recruitment assays. The assay used biotin-SRC2-2 coactivator peptide, streptavidin-d2, RXRα and THRβ-LBD Eu-anti-GST antibody with GST tag. Eu-anti-GST antibody indirectly labeled THRβ-LBD by binding to the GST tag. Streptavidin-d2 indirectly labeled the SRC2-2 coactivator peptide by binding to the biotin tag. In the presence of RXRα, THRβ-LBD can form heterodimer THRβ-LBD/RXRα with it. […] According to the effect of different concentrations of the compound on the activity of THRβ, the agonistic ability of the compound can be evaluated.
The detailed procedure is as follows: • a. 100× reference compound or compound was prepared with DMSO, and equally diluted by 1:3. • b. 100× gradiently diluted reference compound or compound was diluted with 1× reaction buffer to 4×, which was then added to an assay plate. • c. A mixed solution of 4× THRβ-LBD and 4× RXRα was prepared with 1× reaction buffer, and added to the assay plate. • d. A mixed solution of 2× biotin-SRC2-2, 2× Eu-anti-GST, and 2× streptavidin-d2 was prepared with 1× reaction buffer, and added to the assay plate. • e. The assay plate was centrifuged at 1000 rpm for 1 min, and incubated at room temperature in the dark for 4 hours. • f.

Another assay has as its target T2, THRα (Homo sapiens, UniProt P10827).
T2 construct: GST
Nature of the assay: THRα binding assay (as the THRβ assay, THRβ replaced with THRα). It counts as biochemical. As to conditions: for EC50: THRα in place of THRβ; for THRα/β selectivity (fold): ratio of THRα EC50 to THRβ EC50.

In general, EC50 refers to the concentration that produces a half-maximal response. The low end stands for a more potent agent, the high end for a less potent agent.

T2 sequence (P10827 1-410 isoform P10827-2, other chains not shown): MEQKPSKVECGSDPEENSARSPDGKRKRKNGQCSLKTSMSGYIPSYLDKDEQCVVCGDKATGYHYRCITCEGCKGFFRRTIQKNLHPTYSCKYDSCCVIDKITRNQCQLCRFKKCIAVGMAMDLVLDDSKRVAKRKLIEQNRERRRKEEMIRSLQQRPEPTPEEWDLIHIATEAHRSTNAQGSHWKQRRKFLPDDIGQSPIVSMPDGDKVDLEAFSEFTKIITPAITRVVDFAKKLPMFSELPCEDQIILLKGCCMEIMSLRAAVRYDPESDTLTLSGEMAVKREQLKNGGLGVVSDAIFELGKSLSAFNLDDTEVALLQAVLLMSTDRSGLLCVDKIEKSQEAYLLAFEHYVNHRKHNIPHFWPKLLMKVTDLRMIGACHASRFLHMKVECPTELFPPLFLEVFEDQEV
T2 sequence (P19793 whole entry partner, other chains not shown): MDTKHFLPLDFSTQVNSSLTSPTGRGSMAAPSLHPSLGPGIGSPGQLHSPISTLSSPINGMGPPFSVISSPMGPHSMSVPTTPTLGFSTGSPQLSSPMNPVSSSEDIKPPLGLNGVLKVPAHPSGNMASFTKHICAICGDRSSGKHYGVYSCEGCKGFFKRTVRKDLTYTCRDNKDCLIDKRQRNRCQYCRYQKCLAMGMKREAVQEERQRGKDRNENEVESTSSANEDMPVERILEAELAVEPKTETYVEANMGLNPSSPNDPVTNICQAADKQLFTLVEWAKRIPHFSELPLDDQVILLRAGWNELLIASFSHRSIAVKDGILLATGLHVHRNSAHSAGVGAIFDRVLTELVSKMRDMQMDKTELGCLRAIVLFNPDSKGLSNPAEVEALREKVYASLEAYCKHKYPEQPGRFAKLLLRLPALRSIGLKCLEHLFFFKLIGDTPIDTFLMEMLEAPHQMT
T1 sequence (P10828 217-461 limits assumed, other chains not shown): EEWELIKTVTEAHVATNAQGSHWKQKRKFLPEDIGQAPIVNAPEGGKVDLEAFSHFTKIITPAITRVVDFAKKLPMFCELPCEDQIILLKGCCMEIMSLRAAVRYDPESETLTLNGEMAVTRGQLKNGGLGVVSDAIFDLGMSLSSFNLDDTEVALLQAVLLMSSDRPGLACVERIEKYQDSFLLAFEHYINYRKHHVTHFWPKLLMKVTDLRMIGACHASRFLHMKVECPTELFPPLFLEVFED
T1 sequence (P19793 whole entry partner, other chains not shown, the tested form may be a part): as the sequence (P19793 whole entry partner, other chains not shown) above

At THRβ, `N#Cc1nn(-c2cc(Cl)c(Oc3ccc(=O)n(C4=CCCCC4)c3)c(Cl)c2)c(=O)[nH]c1=O` [Example 13, 2-(3,5-Dichloro-4-((1-(cyclohex-1-en-1-yl)-6-oxo-1,6-dihydropyridin-3-yl)oxy)phenyl) -3,5-dioxo-2,3,4,5-tetrahydro-1,2,4-triazine-6-carbonitrile] showed an EC50 of 22 nM.
In turn, `O=c1[nH]c(=O)n(-c2cc(Cl)c(Oc3ccc(=O)n(-c4cccs4)c3)c(Cl)c2)nc1CF` [Example 43, 2-(3,5-Dichloro-4-((6-oxo-1-(thiophen-2-yl)-1,6-dihydropyridin-3-yl)oxy)phenyl)-6-(fluoromethyl)-1,2,4-triazine-3,5(2H, 4H)-dione] yielded a concentration giving a half-maximal response (EC50) on THRβ of 8 nM.
On THRβ, `Cc1cccc(-n2cc(Oc3c(Cl)cc(-n4nc(C#N)c(=O)[nH]c4=O)cc3Cl)ccc2=O)c1` [Example 26, 2-(3,5-Dichloro-4-((6-oxo-1-(3-methylphenyl)-1,6-dihydropyridin-3-yl)oxy)phenyl)-3,5-dioxo-2,3,4,5-tetrahydro-1,2,4-triazine-6-carbonitrile] registered an EC50 of 60 nM.
As for `O=c1[nH]c(=O)n(-c2cc(Cl)c(Oc3ccc(=O)n(-c4cccc(F)c4)c3)c(Cl)c2)nc1CF` [Example 38, 2-(3,5-dichloro-4-((1-(3-fluorophenyl)-6-oxo-1,6-dihydropyridin-3-yl)oxy)phenyl)-6-(fluoromethyl)-1,2,4-triazine-3,5(2H, 4H)-dione], the concentration giving a half-maximal response (EC50) on THRβ came to 3 nM; on THRα it was 85 nM. Besides, at THRα, the “THRα/β selectivity (fold)” value stood at 28.3 fold.
`N#Cc1nn(-c2cc(Cl)c(Oc3ccc(=O)n(-c4cccc(C5CC5)c4)c3)c(Cl)c2)c(=O)[nH]c1=O` [Example 31, 2-(3,5-dichloro-4-((1-(3-cyclopropylphenyl)-6-oxo-1,6-dihydropyridin-3-yl)oxy)phenyl)-3,5-dioxo-2,3,4,5-tetrahydro-1,2,4-triazine-6-carbonitrile] showed an EC50 at THRβ of 81 nM.
At THRβ, `CC(C)Cn1cc(Oc2c(Cl)cc(-n3nc(C#N)c(=O)[nH]c3=O)cc2Cl)ccc1=O` [Example 6, 2-(3,5-Dichloro-4-[(1-(2-methylpropyl)-6-oxo-1,6-dihydropyridin-3-yl)oxy]phenyl)-3,5-dioxo-2,3,4,5-tetrahydro-1,2,4-triazine-6-carbonitrile] registered an EC50 of 100 nM. At THRα, the EC50 came to 2030 nM and the “THRα/β selectivity (fold)” value is reported as 20.3 fold.
On THRβ, `N#Cc1nn(-c2cc(Cl)c(Oc3ccc(=O)n(-c4nccs4)c3)c(Cl)c2)c(=O)[nH]c1=O` [Example 34, 2-(3,5-dichloro-4-((6-oxo-1-(thiazol-2-yl)-1,6-dihydropyridin-3-yl)oxy)phenyl)-3,5-dioxo-2,3,4,5-tetrahydro-1,2,4-triazine-6-carbonitrile] showed an EC50 of 435 nM.
As for `N#Cc1nn(-c2cc(Cl)c(Oc3ccc(=O)n(-c4cccs4)c3)c(Cl)c2)c(=O)[nH]c1=O` [Example 33, 2-(3,5-Dichloro-4-((6-oxo-1-(thien-2-yl)-1,6-dihydropyridin-3-yl)oxy)phenyl)-3,5-diox o-2,3,4,5-tetrahydro-1,2,4-triazine-6-carbonitrile], the concentration giving a half-maximal response (EC50) at THRβ came to 119 nM.
Same read-out and setting: the value for `N#Cc1nn(-c2cc(Cl)c(Oc3ccc(=O)n(-c4ccsc4)c3)c(Cl)c2)c(=O)[nH]c1=O` [Example 32, 2-(3,5-Dichloro-4-((6-oxo-1-(thiophen-3-yl)-1,6-dihydropyridin-3-yl)oxy)phenyl)-3,5-dioxo-2,3,4,5-tetrahydro-1,2,4-triazine-6-carbonitrile] was 100 nM.
For the compound `COCCn1cc(Oc2c(Cl)cc(-n3nc(C#N)c(=O)[nH]c3=O)cc2Cl)ccc1=O` [Example 8, 2-(3,5-Dichloro-4-((1-(2-methoxyethyl)-6-oxo-1,6-dihydropyridin-3-yl)oxy)phenyl) -3,5-dioxo-2,3,4,5-tetrahydro-1,2,4-triazine-6-carbonitrile], on THRβ, the half-maximal effective concentration (EC50) was found to be 431 nM.
`N#Cc1nn(-c2cc(Cl)c(Oc3ccc(=O)[nH]c3)c(Cl)c2)c(=O)[nH]c1=O` [Example 2, 2-(3,5-Dichloro-4-((6-oxo-1,6-dihydropyridin-3-yl)oxy)phenyl)-3,5-dioxo-2,3,4,5-tetra hydro-1H-1,2,4-triazine-6-carbonitrile] registered an EC50 on THRβ of 3650 nM.
Turning to `CCC(CC)n1cc(Oc2c(Cl)cc(-n3nc(C#N)c(=O)[nH]c3=O)cc2Cl)ccc1=O` [Example 7, 2-(3,5-dichloro-4-((6-oxo-1-(pentan-3-yl)-1,6-dihydropyridin-3-yl)oxy)phenyl)-3,5-dioxo-2,3,4,5-tetrahydro-1,2,4-triazine-6-carbonitrile], on THRβ, the response was half-maximal at 40 nM (EC50).
`Cc1cc(Oc2c(Cl)cc(-n3nc(C#N)c(=O)[nH]c3=O)cc2Cl)cn(C2CC2)c1=O` [Example 18, 2-(3,5-Dichloro-4-((1-cyclopropyl-5-methyl-6-oxo-1,6-dihydropyridin-3-yl)oxy)phenyl) -3,5-dioxo-2,3,4,5-tetrahydro-1,2,4-triazine-6-carbonitrile] displayed an EC50 at THRβ of 1430 nM.
On THRβ, `Cc1cc(C)cc(-n2cc(Oc3c(Cl)cc(-n4nc(C#N)c(=O)[nH]c4=O)cc3Cl)ccc2=O)c1` [Example 30, 2-(3,5-dichloro-4-((1-(3,5-dimethylphenyl)-6-oxo-1,6-dihydropyridin-3-yl)oxy)phenyl)-3,5-dioxo-2,3,4,5-tetrahydro-1,2,4-triazine-6-carbonitrile] displayed a half-maximal effective concentration (EC50) of 150 nM.
At THRβ, `N#Cc1nn(-c2cc(Cl)c(Oc3ccc(=O)n(-c4cc(F)cc(F)c4)c3)c(Cl)c2)c(=O)[nH]c1=O` [Example 29, 2-(3,5-Dichloro-4-((1-(3,5-difluorophenyl)-6-oxo-1,6-dihydropyridin-3-yl)oxy)phenyl) -3,5-dioxo-2,3,4,5-tetrahydro-1,2,4-triazine-6-carbonitrile] yielded an EC50 of 297 nM.
In turn, `CC(C)n1cc(Oc2c(Cl)cc(-n3nc(CF)c(=O)[nH]c3=O)cc2Cl)ccc1=O` [Example 44, 2-(3,5-Dichloro-4-((1-isopropyl-6-oxo-1,6-dihydropyridin-3-yl)oxy)phenyl)-6-(fluoromethyl)-1,2,4-triazine-3,5(2H, 4H)-dione] registered a concentration for a half-maximal effect (EC50) at THRβ of 3 nM.
The same measure, in the same setting: the value for `CC(C)n1cc(Oc2c(Cl)cc(-n3nc(C#N)c(=O)[nH]c3=O)cc2Cl)cc(C2CC2)c1=O` [Example 19, 2-(3,5-Dichloro-4-((5-cyclopropyl-1-isopropyl-6-oxo-1,6-dihydropyridin-3-yl)oxy)phenyl)-3,5-dioxo-2,3,4,5-tetrahydro-1,2,4-triazine-6-carbonitrile] was 1340 nM; that for `Cc1ccccc1-n1cc(Oc2c(Cl)cc(-n3nc(C#N)c(=O)[nH]c3=O)cc2Cl)ccc1=O` [Example 27, 2-(3,5-Dichloro-4-((6-oxo-1-(o-methylphenyl)-1,6-dihydropyridin-3-yl)oxy)phenyl)-3,5-dioxo-1,2,3,4-4,5-tetrahydro-1,2,4-triazine-6-carbonitrile] was 136 nM.
Compound `COCCn1cc(Oc2c(Cl)cc(-n3nc(CF)c(=O)[nH]c3=O)cc2Cl)ccc1=O` [Example 45, 2-(3,5-Dichloro-4-((1-(2-methoxyethyl)-6-oxo-1,6-dihydropyridin-3-yl)oxy)phenyl)-6-(fluoromethyl)-1,2,4-triazine-3,5(2H, 4H)-dione] yielded a concentration giving a half-maximal response (EC50) on THRβ of 32 nM.
